Measurements published in ChEMBL document CHEMBL1770144, “Discovery of potent nucleotide-mimicking competitive inhibitors of hepatitis C virus NS3 helicase” (Bioorg Med Chem Lett, 2011).
pKi: −log10 of the molar value.

Test: Competitive inhibition of Hepatitis C virus NS3 helicase
Set-up: species or system Hepacivirus hominis

Compared with `CCOc1ccc2c(NNC(=O)c3ccco3)cc(C)nc2c1`, `CCOc1ccc2c(NNC(=O)c3ccccc3)cc(C)nc2c1` is higher in pKi: under 3.52 for the first, 3.90 for the second.

Going from `CCOc1ccc2c(NNS(=O)(=O)c3ccccc3)cc(C)nc2c1` to `CCOc1ccc2c(NNS(=O)(=O)c3ccc(C)cc3)cc(C)nc2c1`, the pKi falls from 5.30 to 4.12 (1.18 log units).

Compared with `CCOc1ccc2c(NNC(=O)c3cnccn3)cc(C)nc2c1`, `CCOc1ccc2nc(C)cc(NNC(=O)c3cnccn3)c2c1` is lower in pKi: 6.12 for the first, under 3.52 for the second. The first binds more tightly here.

First: O=C(NNc1c2c(nc3ccccc13)CCCC2)c1cnccn1
Second: CCOc1ccc2c(NNC(=O)c3cnccn3)c3c(nc2c1)CCCC3
The pKi of the first is lower: under 3.52 for the first, 7.70 for the second. The second binds more tightly here.

Compared with `CCOc1ccc2c(NNC(=O)[C@@H]3CSCN3)cc(C)nc2c1`, `CCOc1ccc2c(NNC(=O)c3cc4ccccc4cn3)cc(C)nc2c1` is higher in pKi: under 3.52 for the first, 3.60 for the second.

First: CCOc1ccc2c(NNS(=O)(=O)c3ccccn3)cc(C)nc2c1
Second: CCOc1ccc2c(NNS(=O)(=O)c3ccccn3)c3c(nc2c1)CCCC3
The pKi of the first is 0.48 log units lower: 6.52 for the first, 7.00 for the second. The second binds more tightly here.

First: CCOc1ccc2c(NNS(=O)(=O)c3ccccc3)c3c(nc2c1)CCCC3
Second: Cc1cc(NNC(=O)c2cnccn2)c2ccccc2n1
The pKi of the first is higher: 6.80 for the first, under 3.52 for the second. The first binds more tightly here.

Test: Competitive inhibition of Hepatitis C virus NS3 helicase using nucleic acid as substrate
Set-up: species or system Hepacivirus hominis

For `CCOc1ccc2c(NNC(=O)c3cnccn3)c3c(nc2c1)CCCC3`, the pKi was 7.70.
